Earlier results on three compounds are cited in US12121566B2, “Methods for treating gout” (Horizon Therapeutics USA, Inc., priority 2019, dated 2024).

Read-outs that look alike come from different tables or passages of the source.

The conditions of data set [1]: cited from earlier work; for detectable in urine: after 8 hours.
The subject of the next data set is serum proteins. Conditions: cited from earlier work.
Data set [2] concerns patients treated with allopurinol. To be noted: cited from earlier work.
The conditions of data set [3]: cited from earlier work.

Take `Sc1ncnc2nc[nH]c12` [mercaptopurine, 6-mercaptopurine]: the detectable in urine entry in data set [1] is listed as “no azathioprine or mercaptopurine is detectable”. Further, in the data set on serum proteins, the “bound to serum proteins” value was 30%.

Regarding `Oc1ncnc2[nH]ncc12` [allopurinol], in data set [2], the “patients who develop allergic reactions” value was “Approximately 2%” and the severe hypersensitivity syndrome result is on record as “about 0.4%”.

As for `Cn1cnc([N+](=O)[O-])c1Sc1ncnc2nc[nH]c12` [azathioprine, 6-[(1-methyl-4-nitro-1H-imidazol-5-yl)thio]-1H-purine], the detectable in urine entry in data set [1] is given as “no azathioprine or mercaptopurine is detectable”. Further, the oral absorption entry in data set [1] (oral administration) is reported as “well absorbed”. For the same compound, the stability in solution entry was “hydrolysis to mercaptopurine occurs” in data set [3] (excess sodium hydroxide (0.1N), especially on warming) and “stable” in data set [3] (neutral or acid pH). In addition, in data set [3] (may be dissolved with one molar equivalent of alkali), the solubility in water entry is given as “insoluble”. In addition, in the data set with serum proteins, the “bound to serum proteins” value was 30%.
